Experimental data taken from patent US5618675A, “Methods and compositions for detecting lipopolysaccharides using CAP18 fragments” (Panorama Research, Inc., dated 1997).
Read-outs that look alike come from different tables or passages of the source.

What was measured:
[1] = system: RAW 264.7 cells; format: cell-based, murine; settings: for Inhibition of LPS-induced RNI-IC50: LPS-induced (2.5 ng/ml LPS in FIG. 6B); for concentrations at which peptides are active in the bioassay: day-to-day variation
Experimental: From the sequence of the CAP18 cDNA, it was apparent that the putative N-terminal peptide of CAP18 was in fact an internal fragment of the CAP18 protein. We therefore tried to reconfirm the original protein sequence. Neutrophil-derived heparin bound cationic proteins were prepared as described above and applied to a C18 reverse phase HPLC (FIG. 1). We sequenced the major peaks. Peaks at fractions 14.5 and 15.2 correspond to defensins MCP1 and MCP2 (Territo et al. (1989) J. Clin. Invest. 84:2017-2019), respectively. Fraction 25.8 is macrophage related protein 14 (MRP14) (Odink et al. (1987) Nature 330:80-82). The fraction at 20.3 minutes corresponds to a fragment of CAP18 of approximately 4-5 kD. […] The murine macrophage cell line RAW 264.7 (obtained from ATCC) and thioglycolate-elicited murine peritoneal exudate cells are used to produce RNI. Cells are cultured at 1×10^6 /ml. in RPMI-1640 +2.5% FCS in 24 well plates in the presence or absence of different concentrations of LPS or murine rlFNγ. After 24 hr. incubation at 37° C. the cell free supernatant is collected and tested for the presence of RNI. Accumulation of nitrite in the medium is measured by a colorimetric assay based on the Griess reaction (Green et al. (1982) Anal. Biochem. 126:11) using sodium nitrite as standards. Sample (50 μl) is mixed with 50 μl of Griess reagent (1% sulfanilamide, 0.1% naphthalene diamine dihydrochloride, 2.5% H3 PO4) and after 10 min. at room temperature absorbance is read at 570 nm.

[2] = system: Salmonella minnesota ReLPS sensitized sheep erythrocytes; assay: LPS hemagglutination assay (MAC); format: binding
Experimental: For hemagglutination assays, erythrocytes were sensitized with LPS as follows. One ml of 1% erythrocyte suspension (human 0 type, C3H/HeN mouse or sheep) was mixed with 0.2 ml of LPS solution and incubated at 37° C. for 30 min, followed by washing with phosphate buffered saline (PBS), and then the concentration of suspension was adjusted to 1.0%. In the case of S-LPS, the solution was heated at 100° C. for 1 hour before sensitization of erythrocytes. […] Activity of CAP was expressed as a minimum agglutinating concentration (MAC) of CAP. According to the method of Kirikae et al. (1986) Microbiol. Immunol. 30:269-274, 50 μl of 2-fold serial dilution of Re-LPS was added to 50 μl of 1.0% rabbit erythrocyte suspension, and incubated at 37° C. for 3, hour. Minimum agglutinating concentration of Re-LPS was expressed as 1 HA unit.

[3] = system: two strains of Mycobacterium avium; assay: Antimicrobial activity; format: cell-based; settings: range 0-20 μg/ml
[4] = system: thioglycolate-stimulated murine peritoneal macrophages; assay: LPS-induced tissue factor generation by macrophages; format: cell-based; settings: for inhibition of LPS induced tissue factor: peptide 1 μg/ml, 6 hr, FIG. 12
Experimental: […] Cells were cultured for 6 hours prior to assay of tissue factor by clotting assay.
[…] Production of tissue factor after 6 hr. was measured by clotting assay. […] In the absence of LPS no tissue factor is synthesized by these cells.

[5] = system: Human plasma; assay: Prothrombin time (PT); format: biochemical; settings: for inhibition of prothrombin time (PT), words: FIG. 14A
Experimental: (§1) Clotting method: Human plasma (Ortho plasma control, Ortho Diagnostic Co.). ATPP reagent (Organotechnika, Tokyo, Japan). Standard tissue factor, rabbit brain thromboplastin (Simplastin, ONO Pharmaceutical, Tokyo, Japan). Purified human factor VII, factor X, factor Xa (Sigma Chemical Co., St. Louis, Mo.). Russell Viper venom (RVV) and Echis carinatus venom (ECV, Sigma Co.).
(§2) Instrumentation: Clotting assays were carried out using a Fibrometer (BioQuest Division, Becton Dickinson; Cokeysville, […]., USA).
Human plasma (100 μl) was incubated with 100 μl of each peptide at 37° C. for 3 min., then 100 μl of tissue factor (250 μg/ml) CaCl2 was added and clotting time was measured.

[6] = system: Human plasma; assay: Activated partial thromboplastin time (APTT); format: biochemical
Experimental: as §1, §2
Human plasma (100 μl), 100 μl of APTT reagent and 100 μl of peptide was incubated at 37° C. for 5 min after which CaCl2 was added and clotting time measured.

[7] = molecular target: T1, factor X (Homo sapiens, UniProt P00742); assay: Factor X activation by tissue factor and factor VII, synthetic substrate S-2222; format: biochemical; settings: FIG. 16B
T1 construct: purchased Sigma Chemical Co., St. Louis, Mo
Source text: as §1
Synthetic chromogenic substrate method: Substrate for factor Xa, S2222 (Kabi, Bz-Ile-Glu-Arg-pNA) was used. Substrate for factor II (prothrombin), Boc-Val-Pro-Arg-pNA (Sigma Chemical Co.) was used.
A reaction mixture of factor VII (1 unit/ml, 200 μl), factor X (1 unit/ml, 200 μl), tissue factor (2.5 mg/ml, 50 μl), 25 mM-CaCl2(50 μl) and 50 μl of several concentration of peptide was incubated at 37° C. for 10 min. To 200 μl of the reaction mixture, 60 μl of 4 mM S-2222, a synthetic substrate for factor Xa, and 340 μl of Tris-HCl buffer, pH 8.2, was added and further incubated for 15 min. The reaction was stopped by adding 60 μl of 50% acetic acid, and OD for p-nitroaniline was read at 405 nm.

[8] = system: Candida albicans; assay: Antimicrobial activity; settings: range 0-20 μg/ml
[9] = system: Salmonella typhimurium; assay: Antibacterial CFU assay; settings: read-out: anti-bacterial IC50 (CFU); FIG. 6D
[10] = system: Pseudomonas aeruginosa; assay: Antibacterial CFU assay; settings: for IC50: read-out: anti-bacterial IC50 (CFU)
[11] = system: Klebsiella pneumoniae; assay: Antibacterial CFU assay
[12] = system: methicillin-sensitive Staphylococcus aureus; assay: Antibacterial CFU assay; settings: for IC50: read-out: IC50, inhibition of CFU
[13] = system: methicillin-resistant Staphylococcus aureus; assay: Antibacterial CFU assay; settings: for IC50: read-out: IC50, inhibition of CFU

T1 sequence (P00742 41-179 limits assumed): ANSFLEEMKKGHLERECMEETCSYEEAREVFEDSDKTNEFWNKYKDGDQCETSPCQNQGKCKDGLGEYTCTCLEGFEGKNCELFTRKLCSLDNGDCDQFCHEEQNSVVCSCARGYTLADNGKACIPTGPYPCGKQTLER
T1 sequence (P00742 183-488 limits assumed): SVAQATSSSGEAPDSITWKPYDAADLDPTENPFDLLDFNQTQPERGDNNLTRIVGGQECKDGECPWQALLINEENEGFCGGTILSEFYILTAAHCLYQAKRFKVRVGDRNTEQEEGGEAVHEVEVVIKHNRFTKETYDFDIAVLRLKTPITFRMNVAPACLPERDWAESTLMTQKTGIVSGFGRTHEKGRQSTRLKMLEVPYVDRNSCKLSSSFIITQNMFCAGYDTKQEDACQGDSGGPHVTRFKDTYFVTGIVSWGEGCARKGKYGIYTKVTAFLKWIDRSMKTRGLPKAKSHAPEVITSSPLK

Row | Substance | activity in hemagglutination and inhibition of LPS-induced RNI [1] | Inhibition of LPS-induced RNI-IC50 [1] | concentrations at which peptides are active in the bioassay [1] | Hemagglutination MAC (minimum agglutinating concentration) [2] | activity versus two strains of Mycobacterium avium [3] | inhibition of LPS induced tissue factor [4] | IC50, Prothrombin time [5] | inhibition of prothrombin time (PT), words [5] | IC50, Activate Partial Thromboplastin time [6] | IC50, factor X activated by tissue factor and purified factor VII [7] | activity versus Candida albicans [8] | IC50 [9] | IC50 [10] | anti-bacterial IC50 (CFU) [11] | IC50, inhibition of CFU [12] | IC50 [12] | IC50, inhibition of CFU [13] | IC50 [13] | also measured
1 | 36-1: synthetic rabbit RNIP-derived fragment, amino acids 135-166 of SEQ ID NO:4 (GLRKRLRKFRNKIKEKLKKIGQKIQGLLPKLA) | active | 0.08 µg/mL | 10 to 50 nM | 3.9 µg/mL | inactive | inhibition | 2.0 µg/mL | inhibited | 3.8 µg/mL | 0.6 to 0.7 µg/mL | inactive | 220 to 280 nM | < 50 nM | < 0.54 µg/mL | 0.58 µg/mL | 110 nM | 0.72 µg/mL | 130 nM | IC50 ([6]; read-out: IC50, Activate Partial Thromboplastin time): 700 nM; anti-bacterial IC50 (CFU) [10]: < 0.25 µg/mL
2 | RNIP: reactive nitrogen inhibitory protein, amino acids 135-171 of SEQ ID NO:4 (rabbit CAP18 C-terminus); purified from granulocytes or synthetic (#197) (GLRKRLRKFRNKIKEKLKKIGQKIQGLLPKLAPRTDY) | active | about 0.2 μg/ml | 10 to 50 nM | 7.9 µg/mL | inactive | inhibition | 1.9 µg/mL | inhibited | 3.2 µg/mL | 0.3 to 0.6 µg/mL | inactive | 220 to 280 nM | < 40 nM | < 0.44 µg/mL | 0.94 µg/mL | 150 nM | 1 µg/mL | 160 nM | IC50 ([1]; 2.5 ng/ml LPS, FIG. 6B, read-out: 50% inhibitory concentration (IC50), LPS-induced RNI production): ~30 nM; capacity to inhibit LPS-stimulated nitrogen radical release from macrophages ([1]; HPLC-purified rabbit peptides, FIG. 5): active; reactive nitrogen intermediates (RNI) ([1]; LPS (2.5 ng/ml), RNIP (1:1), stimulus alone 27): 4 µM; reactive nitrogen intermediates (RNI) ([1]; LPS (2.5 ng/ml), RNIP (1:10), stimulus alone 27): 16 µM; reactive nitrogen intermediates (RNI) ([1]; LPS (2.5 ng/ml), RNIP (1:100), stimulus alone 27): 24 µM; Inhibition of LPS-induced RNI-IC50 ([1]; listed as 197/RNIP): 0.2 µg/mL; reactive nitrogen intermediates (RNI) ([1]; Murine IFNγ (250 U), RNIP (1:1), stimulus alone 30): 15 µM; reactive nitrogen intermediates (RNI) ([1]; Murine IFNγ (250 U), RNIP (1:10), stimulus alone 30): 18 µM; reactive nitrogen intermediates (RNI) ([1]; Murine IFNγ (250 U), RNIP (1:100), stimulus alone 30): 20 µM; inhibition of LPS-induced tissue factor generation when peptide added after LPS ([4]; added as late as 3 hours after the LPS stimulus, FIG. 13): Significant inhibition; IC50 [5]: 300 nM; IC50 ([7]; read-out: IC50, factor X activated by tissue factor and purified factor VII): 40 to 100 nM; anti-bacterial IC50 (CFU) ([10]; FIG. 6E): < 250 µg/mL; IC50 ([11]; read-out: anti-bacterial IC50 (CFU)): < 70 nM
